Measured values from patent US12016922B2, “Stabilized aqueous antibody compositions” (Arecor Limited, priority 2012, dated 2024).

What was measured:
rituximab [1] = assay: Visual assessment of rituximab formulations on storage; assay type: physicochemical; conditions: rituximab 100 mg/ml, trehalose 200 mM
Method: (§1) In order to prepare the formulations for testing, it was necessary to remove the original excipients and replace them with the selected excipients. The following procedure was used to prepare the formulations for testing: Original compositions were removed from the manufacturer's container and dialysed in 3.5 kDa cut-off dialysis cassettes (Thermo Pierce) at 2-8° C., using three changes for a minimum of 4 hours in each, including one overnight incubation.
(§2) The background solutions, containing the new excipients and adjusted to the required pH, were added to the dialysed proteins to achieve the required concentration of excipients and the protein in the final composition. The formulated samples were placed into storage at 40° C. or at 5° C., and stability was tested after a given period of time. The stability of the proteins was tested in compositions containing oligomers of ethyleneimine and compared to a ‘Control formulation’ with identical background in the absence of the oligomers.
Vials are placed in a suitable location with a suitably selected contrasting background, and under sufficient and appropriate illumination to highlight any potential or detected visual deviations. A control (or freshly prepared material) is placed alongside for direct comparison. Solutions are classed as clear if there are no visual imperfections; as cloudy if there is a significant change in the opacity of the material; and if there are insoluble fractions, or if particles are visible towards the bottom of the vial, a precipitate is deemed to have been formed.
(§3) Rituximab was formulated at 100 mg/ml in the following background solution: EDTA (0.2 mM), methionine (1 mM), histidine (10 mM). The pH was adjusted to 6.5.

rituximab [2] = assay: Aggregation of rituximab formulations on storage, % HMWS by size exclusion chromatography; assay type: physicochemical; conditions: for % HMWS 0 weeks / % HMWS 12 weeks / % HMWS 8 weeks / % HMWS T0: rituximab 100 mg/ml; for % HMWS 8 weeks / % HMWS T0: trehalose 200 mM
Method: Formulations of protein therapeutics, rituximab and certolizumab pegol, were prepared either in the absence or in the presence of various oligomers of ethyleneimine. The following products were used as the starting material: MabThera® (rituximab) and Cimzia® (certolizumab pegol). The compositions of the two products are as follows:
as §1, §2
The amount of high molecular weight species is measured using a 300×7.8 mm S3000 (or equivalent) size-exclusion column with a guard column. The mobile phase is potassium phosphate pH 6.5, with a flow rate of 0.4 ml/min, injection volume of 1 μl and detected at 210 and 280 nm. The results are expressed as % high molecular species (HMWS), i.e. sum of all peak areas corresponding to aggregated protein over the sum of all protein-related peaks on the chromatogram. […] However, within a given time-point the samples are tested using the column in the same condition, so the values generated within the time-point represent a very good indication of the relative stability of the protein in the compositions tested.
as §3
Rituximab was formulated at 100 mg/ml in the following background solution: EDTA (0.2 mM), methionine (1 mM), histidine (10 mM), in the presence of arginine (80 mM) as a tonicity modifier. The pH of all formulations was adjusted to 6.5. For comparison, the formulation of commercial liquid rituximab product (‘Original formulation’ also with rituximab at 100 mg/ml) was also included.
Rituximab was formulated at 100 mg/ml in the following background solution: EDTA (0.2 mM), methionine (1 mM) histidine (10 mM) and trehalose (200 mM). The pH was adjusted to 6.5.
Rituximab was formulated at 140 mg/ml in the following background solution: EDTA (0.2 mM), methionine (1 mM), histidine (10 mM) and trehalose (200 mM). The pH was adjusted to 6.5.

[3] = pH 6.5, 5° C., additive 0.1 mg/ml
[4] = pH 6.5, 5° C., additive 0.5 mg/ml
[5] = pH 6.5, 5° C., additive 2.5 mg/ml
[6] = pH 6.5, 40° C., additive 0.1 mg/ml
[7] = pH 6.5, 40° C., additive 0.5 mg/ml
[8] = pH 6.5, 40° C., additive 2.5 mg/ml
[9] = arginine 80 mM, pH 6.5, 40° C., additive 0.1 mg/ml
[10] = arginine 80 mM, pH 6.5, 40° C., additive 0.5 mg/ml
[11] = arginine 80 mM, pH 6.5, 40° C., additive 2.5 mg/ml

Cl.Cl.Cl.Cl.Cl.NCCNCCNCCNCCN [Tetraethylenepentamine, tetraethylenepentamine pentahydrochloride]
Visual (8 weeks) (rituximab [1]; [3]): Clear | Visual (8 weeks) (rituximab [1]; [4]): Clear | Visual (8 weeks) (rituximab [1]; [5]): Clear | Visual (8 weeks) (rituximab [1]; [6]): Clear | Visual (8 weeks) (rituximab [1]; [7]): Clear | Visual (8 weeks) (rituximab [1]; [8]): Clear | effect on the rate of formation of HMWS (rituximab [2]; Example 1: rituximab 100 mg/ml, trehalose, pH 6.5, 40° C. and 5° C.): reduce considerably the rate of formation of HMWS | effect on the rate of formation of HMWS (rituximab [2]; Example 3: rituximab 100 mg/ml, arginine 80 mM, pH 6.5, 40° C., compared with background solutions without oligomer): reduce considerably the rate of formation of HMWS | % HMWS 0 weeks (rituximab [2]; [9]): 1.58% | % HMWS 12 weeks (rituximab [2]; [9]): 2.08% | % HMWS 0 weeks (rituximab [2]; [10]): 1.53% | % HMWS 12 weeks (rituximab [2]; [10]): 1.89% | % HMWS 0 weeks (rituximab [2]; [11]): 1.47% | % HMWS 12 weeks (rituximab [2]; [11]): 0.85% | % HMWS 8 weeks (rituximab [2]; [3]): 1.23% | % HMWS T0 (rituximab [2]; [3]): 1.40% | % HMWS 8 weeks (rituximab [2]; [4]): 1.22% | % HMWS T0 (rituximab [2]; [4]): 1.44% | % HMWS 8 weeks (rituximab [2]; [5]): 1.21% | % HMWS T0 (rituximab [2]; [5]): 1.40% | % HMWS 8 weeks (rituximab [2]; [6]): 1.79% | % HMWS T0 (rituximab [2]; [6]): 1.40% | % HMWS 8 weeks (rituximab [2]; [7]): 1.85% | % HMWS T0 (rituximab [2]; [7]): 1.44% | % HMWS 8 weeks (rituximab [2]; [8]): 1.45% | % HMWS T0 (rituximab [2]; [8]): 1.40%
